Data on 3 compounds can be found in US9187506B2 (Bristol-Meyers Squibb Company, priority 2014, dated 2015).

In one series the target is T1, hERG channels (Homo sapiens, UniProt Q12809).
T1 construct: expressed in transfected cells
Kind of series: hERG electrophysiology assay (patch clamp, HEK 293 cells). Type of series: cell-based. The conditions noted are these: HEK 293 cells stably expressing hERG, patch clamp tail current. The protocol: The experimental compounds were assessed for hERG activity on HEK 293 cells stably expressing hERG channels using patch clamp technique. Coverslips plated with hERG expressing cells were placed in the experimental chamber and were perfused with a solution composed of (in mM): 140 NaCl, 4 KCl, 1.8 CaCl2, 1 MgCl2, 10 Glucose, 10 HEPES (pH 7.4, NaOH) at room temperature. Borosilicate patch pipettes had tip resistances of 2-4 Mohms when filled with an internal solution containing 130 KCl, 1 MgCl2, 1 CaCl2, 10 EGTA, 10 HEPES, 5 ATP-K2 (pH 7.2, KOH). The cells were clamped at −80 mV in whole cell configuration using an Axopatch 200B (Axon instruments, Union City, Calif.) patch clamp amplifier controlled by pClamp (Axon instruments) software. Upon formation of a gigaseal, the following voltage protocol was repeatedly (0.05 Hz) applied to record tail currents: depolarization step from −80 mV to +20 mV for 2 seconds followed by a hyperpolarization step to −65 mV (3 seconds) to elicit tail currents and then, back to the holding potential. […] First, tail currents were recorded in presence of extracellular solution alone (control) and subsequently, in extracellular solution containing increasing compound concentrations. […] The percentage inhibition at each concentration was calculated as reduction in peak tail current with respect to the peak tail current recorded in the presence of control solution. […]

The subject of the next series is mice. Nature of the series: Mouse forced swim test (mFST). The series is classed as in vivo. To be noted: 1 mg/Kg i.v., 15 min before 6 min swim session. Here is the method:
Forced Swim Test (FST) is an animal model used to assess antidepressant compounds in preclinical studies. The FST was performed similar to the method of Porsolt et al. with modifications (Porsolt R D, Bertin A, Jalfre M. Behavioral despair in mice: a primary screening test for antidepressants. Arch Int Pharmacodyn Thér 1977; 229:327-36). In this paradigm, mice are forced to swim in an inescapable cylinder filled with water. Under these conditions, mice will initially try to escape and eventually develop immobility behavior; this behavior is interpreted as a passive stress-coping strategy or depression-like behavior. Swim tanks were positioned inside a box made of plastic. Each tank was separated from each other by opaque plastic sheets to the height of cylinders. Three mice were subjected to test at a time. Swim sessions were conducted for 6 min by placing mice in individual glass cylinders (46 cm height×20 cm diameter) containing water (20-cm deep, maintained at 24-25° C.). […] The duration of immobility was evaluated during the total 6 min of the test and expressed as duration (sec) of immobility. […] For NCE testing: Test compound was administered in mice 15 min before swim session by i.v. route and immobility time was recorded for next 6 min. […] The NR2B receptor occupancy was determined as reported above and was determined to be 73%. […] The NR2B receptor occupancy was determined to be 79%.

The target of another series is T2, NR2B-subtype receptors (Mus musculus, UniProt P35438+Q01097).
T2 construct: from tissue; host or cells: forebrain membrane homogenate of dosed CD-1 mice
Kind of series: Ex vivo occupancy assay. Type of series: in vivo. The conditions noted are these: iv; for receptor occupancy at 3 mg/kg: CD-1 mice, 3 mg/Kg i.v., forebrain harvested 15 minutes post-dosing; for receptor occupancy at 1 mg/kg: mice, 1 mg/Kg i.v., after forced swim test. Here is the method: (§1) 7-9 weeks old male CD-1 mice were dosed intravenously in a vehicle consisting of 10% dimethylacetamide, 40% PEG-400, 30% hydroxypropyl betacyclodextrin, and 30% water with experimental compounds and the forebrains were harvested 15 minutes post-dosing by decapitation. The brain samples were immediately snap-frozen and stored at −80° C. On the following day, the dosed brain samples were thawed on ice for 15-20 minutes followed by homogenization using Polytron for 10 seconds in cold homogenization buffer composed of 50 mM KH2PO4 (pH adjusted to 7.4 with KOH), 1 mM EDTA, 0.005% Triton X 100 and protease inhibitor cocktail (Sigma Aldrich). The crude homogenates were further homogenized using a Dounce homogenizer and the homogenized membrane aliquots from all animals were flash-frozen and stored at −80° C. until further use. The whole homogenization process was performed on ice.
For determining occupancy, the membrane homogenates were first thawed on ice and then needle-homogenized using a 25 gauge needle. The homogenized membrane (6.4 mg/ml) was added to a 96-well plate followed by addition of ^3H Ro 25-6981 (6 nM). The reaction mixture was incubated for 5 minutes on a shaker at 4° C. and then harvested onto GF/B filter plates (treated with 0.5% PEI for 1 hr at room temperature). The filter plates were dried at 50° C. for 20 mins, incubated with microscint 20 for 10 minutes and read on TopCount (Perkin Elmer). Each dose or compound group consisted of 4-5 animals. The control group of animals was dosed with vehicle alone. Membrane from each animal was added in triplicates to the assay plate. Non-specific binding was determined using 10 μM Ro 25-6981 added to the wells containing membrane homogenates from vehicle-dosed animals. Specific counts/minute was converted to % occupancy at each dose of a compound for each animal using the following equation:
(§2) [formula] […] Drug levels were determined by mass spectroscopy in the usual manner. Drug levels in the blood plasma were 1106 nM in at this dose, and drug levels in the homogonized brain tissue were 1984 nM. […] Drug levels in the blood plasma were 1800 nM in at this dose, and drug levels in the homogonized brain tissue were 2200 nM. […] Drug levels in the blood plasma were 570 nM at this dose, and drug levels in the homogonized brain tissue were 900 nM.

Series [1] in a line: Drug levels in plasma and brain after mouse forced swim test. The series is classed as in vivo. The conditions noted are these: iv, mice, 1 mg/Kg i.v., at the end of FST. Here is the method: Forced Swim Test (FST) is an animal model used to assess antidepressant compounds in preclinical studies. The FST was performed similar to the method of Porsolt et al. with modifications (Porsolt R D, Bertin A, Jalfre M. Behavioral despair in mice: a primary screening test for antidepressants. Arch Int Pharmacodyn Thér 1977; 229:327-36). In this paradigm, mice are forced to swim in an inescapable cylinder filled with water. Under these conditions, mice will initially try to escape and eventually develop immobility behavior; this behavior is interpreted as a passive stress-coping strategy or depression-like behavior. Swim tanks were positioned inside a box made of plastic. Each tank was separated from each other by opaque plastic sheets to the height of cylinders. Three mice were subjected to test at a time. Swim sessions were conducted for 6 min by placing mice in individual glass cylinders (46 cm height×20 cm diameter) containing water (20-cm deep, maintained at 24-25° C.). […] The duration of immobility was evaluated during the total 6 min of the test and expressed as duration (sec) of immobility. […] All testing sessions were recorded with a video camera (Sony Handicam, Model: DCR-HC38E; PAL) and scoring was done using the Forced Swim Scan, Version 2.0 software (Clever Systems Inc., Reston, Va., USA; see Hayashi E, Shimamura M, Kuratani K, Kinoshita M, Hara H. Automated experimental system capturing three behavioral components during murine forced swim test. Life Sci. 2011 Feb. 28; 88(9-10):411-7 and Yuan P, Tragon T, Xia M, Leclair C A, Skoumbourdis A P, Zheng W, Thomas C J, Huang R, Austin C P, Chen G, Guitart X. Phosphodiesterase 4 inhibitors enhance sexual pleasure-seeking activity in rodents. […] For NCE testing: Test compound was administered in mice 15 min before swim session by i.v. route and immobility time was recorded for next 6 min. […] The NR2B receptor occupancy was determined as reported above and was determined to be 73%. […] The NR2B receptor occupancy was determined to be 79%.

A short description of series [2]: Drug levels in blood plasma and brain tissue by mass spectroscopy (ex vivo occupancy study). To be noted: male, CD-1, mouse, iv, mice, 3 mg/Kg i.v., 15 minutes post-dosing. The protocol:
as §1, §2

Series [3] deals with T3, NR2B-subtype NMDA receptors (Rattus norvegicus, UniProt P35439+Q00960).
T3 construct: For membrane preparation, rat forebrains were thawed on ice; from tissue; host or cells: rat forebrain membrane homogenate (Sprague Dawley, Harlan)
Nature of the series: Radioligand binding assay (3H Ro 25-6981 competition, rat forebrain membranes). To be noted: 3H Ro 25-6981 4 nM. Here is the method: For membrane preparation, rat forebrains were thawed on ice for 20 minutes in homogenization buffer composed of 50 mM KH2PO4 (pH adjusted to 7.4 with KOH), 1 mM EDTA, 0.005% Triton X 100 and protease inhibitor cocktail (Sigma Aldrich). Thawed brains were homogenized using a Dounce homogenizer and centrifuged at 48000×g for 20 min. The pellet was resuspended in cold buffer and homogenized again using a Dounce homogenizer. Subsequently, the homogenate was aliquoted, snap-frozen and stored at −80° C. for not more than 3-4 months.
To perform the competition binding assay, thawed membrane homogenate was added to each well of a 96-well plate (20 μg/well). The experimental compounds were serially diluted in 100% DMSO and added to each row of the assay plate to achieve desired compound concentrations, keeping the DMSO concentration in the assay plate at 1.33% of the final reaction volume. Next, ^3H Ro 25-6981 (4 nM) was added to the assay plate. After incubation for 1 hr at room temperature, the membrane bound radioligand was harvested on to GF/B filter plates (treated with 0.5% PEI for 1 hr at room temperature). The filter plates were dried at 50° C. for 20 mins, incubated with microscint 20 for 10 minutes and finally, the counts were read on TopCount (Perkin Elmer).

[4] abbreviates: plasma, read-out: Drug levels in the plasma.
Setting [5] is: brain (homogenized forebrain tissue), read-out: drug levels in the homogonized brain tissue.
The mark [6] stands for this setting: plasma, read-out: Drug levels in the blood plasma.

SMILES strings stand for the structures. Like-named read-outs stand apart in the source and are kept apart here.

By IC50 is commonly meant the midpoint of a concentration-inhibition curve. High values mean a need for much substance, low ones inhibition by little substance. What is called Ki is a measure of affinity in units of concentration, obtained from inhibition or displacement. The low end stands for higher affinity, the high end for lower affinity.

T2 sequence (Q01097 27-1482, other chains not shown): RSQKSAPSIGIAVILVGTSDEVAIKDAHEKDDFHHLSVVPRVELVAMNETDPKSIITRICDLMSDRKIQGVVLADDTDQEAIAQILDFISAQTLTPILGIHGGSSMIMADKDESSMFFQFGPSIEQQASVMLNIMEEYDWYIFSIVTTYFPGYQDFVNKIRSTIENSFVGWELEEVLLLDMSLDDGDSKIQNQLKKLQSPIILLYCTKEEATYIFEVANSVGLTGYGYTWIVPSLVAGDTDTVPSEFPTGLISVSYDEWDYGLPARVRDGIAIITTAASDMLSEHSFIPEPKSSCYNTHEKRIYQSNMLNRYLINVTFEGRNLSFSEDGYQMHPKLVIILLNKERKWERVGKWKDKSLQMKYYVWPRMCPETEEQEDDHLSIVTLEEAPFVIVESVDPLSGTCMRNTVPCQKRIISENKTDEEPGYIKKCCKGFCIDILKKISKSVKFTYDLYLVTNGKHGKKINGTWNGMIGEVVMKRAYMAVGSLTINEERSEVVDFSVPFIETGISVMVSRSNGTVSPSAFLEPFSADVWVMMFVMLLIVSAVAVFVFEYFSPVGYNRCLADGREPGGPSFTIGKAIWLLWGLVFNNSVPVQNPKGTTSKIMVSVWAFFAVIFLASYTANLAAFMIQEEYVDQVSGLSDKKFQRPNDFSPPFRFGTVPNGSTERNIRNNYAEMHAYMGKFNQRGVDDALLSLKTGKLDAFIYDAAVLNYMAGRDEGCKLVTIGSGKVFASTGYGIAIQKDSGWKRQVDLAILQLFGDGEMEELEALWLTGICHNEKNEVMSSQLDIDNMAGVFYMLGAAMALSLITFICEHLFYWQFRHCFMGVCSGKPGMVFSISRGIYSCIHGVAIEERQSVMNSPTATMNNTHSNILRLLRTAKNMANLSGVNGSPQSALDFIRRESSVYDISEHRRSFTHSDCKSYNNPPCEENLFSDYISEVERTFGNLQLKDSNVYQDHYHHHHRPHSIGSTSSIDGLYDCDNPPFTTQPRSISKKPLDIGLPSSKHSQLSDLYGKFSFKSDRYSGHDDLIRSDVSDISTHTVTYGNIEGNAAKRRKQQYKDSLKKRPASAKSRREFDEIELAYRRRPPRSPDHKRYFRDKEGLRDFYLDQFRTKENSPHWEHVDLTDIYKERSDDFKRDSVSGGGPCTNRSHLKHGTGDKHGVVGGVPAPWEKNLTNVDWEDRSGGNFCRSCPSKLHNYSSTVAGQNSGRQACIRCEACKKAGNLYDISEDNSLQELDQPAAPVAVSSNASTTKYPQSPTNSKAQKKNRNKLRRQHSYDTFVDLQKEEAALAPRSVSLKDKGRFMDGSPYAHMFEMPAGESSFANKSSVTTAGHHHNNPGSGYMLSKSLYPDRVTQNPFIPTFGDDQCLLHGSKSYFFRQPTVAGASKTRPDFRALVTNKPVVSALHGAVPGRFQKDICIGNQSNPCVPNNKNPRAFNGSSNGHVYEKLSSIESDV
T3 sequence (Q00960 27-1482, other chains not shown): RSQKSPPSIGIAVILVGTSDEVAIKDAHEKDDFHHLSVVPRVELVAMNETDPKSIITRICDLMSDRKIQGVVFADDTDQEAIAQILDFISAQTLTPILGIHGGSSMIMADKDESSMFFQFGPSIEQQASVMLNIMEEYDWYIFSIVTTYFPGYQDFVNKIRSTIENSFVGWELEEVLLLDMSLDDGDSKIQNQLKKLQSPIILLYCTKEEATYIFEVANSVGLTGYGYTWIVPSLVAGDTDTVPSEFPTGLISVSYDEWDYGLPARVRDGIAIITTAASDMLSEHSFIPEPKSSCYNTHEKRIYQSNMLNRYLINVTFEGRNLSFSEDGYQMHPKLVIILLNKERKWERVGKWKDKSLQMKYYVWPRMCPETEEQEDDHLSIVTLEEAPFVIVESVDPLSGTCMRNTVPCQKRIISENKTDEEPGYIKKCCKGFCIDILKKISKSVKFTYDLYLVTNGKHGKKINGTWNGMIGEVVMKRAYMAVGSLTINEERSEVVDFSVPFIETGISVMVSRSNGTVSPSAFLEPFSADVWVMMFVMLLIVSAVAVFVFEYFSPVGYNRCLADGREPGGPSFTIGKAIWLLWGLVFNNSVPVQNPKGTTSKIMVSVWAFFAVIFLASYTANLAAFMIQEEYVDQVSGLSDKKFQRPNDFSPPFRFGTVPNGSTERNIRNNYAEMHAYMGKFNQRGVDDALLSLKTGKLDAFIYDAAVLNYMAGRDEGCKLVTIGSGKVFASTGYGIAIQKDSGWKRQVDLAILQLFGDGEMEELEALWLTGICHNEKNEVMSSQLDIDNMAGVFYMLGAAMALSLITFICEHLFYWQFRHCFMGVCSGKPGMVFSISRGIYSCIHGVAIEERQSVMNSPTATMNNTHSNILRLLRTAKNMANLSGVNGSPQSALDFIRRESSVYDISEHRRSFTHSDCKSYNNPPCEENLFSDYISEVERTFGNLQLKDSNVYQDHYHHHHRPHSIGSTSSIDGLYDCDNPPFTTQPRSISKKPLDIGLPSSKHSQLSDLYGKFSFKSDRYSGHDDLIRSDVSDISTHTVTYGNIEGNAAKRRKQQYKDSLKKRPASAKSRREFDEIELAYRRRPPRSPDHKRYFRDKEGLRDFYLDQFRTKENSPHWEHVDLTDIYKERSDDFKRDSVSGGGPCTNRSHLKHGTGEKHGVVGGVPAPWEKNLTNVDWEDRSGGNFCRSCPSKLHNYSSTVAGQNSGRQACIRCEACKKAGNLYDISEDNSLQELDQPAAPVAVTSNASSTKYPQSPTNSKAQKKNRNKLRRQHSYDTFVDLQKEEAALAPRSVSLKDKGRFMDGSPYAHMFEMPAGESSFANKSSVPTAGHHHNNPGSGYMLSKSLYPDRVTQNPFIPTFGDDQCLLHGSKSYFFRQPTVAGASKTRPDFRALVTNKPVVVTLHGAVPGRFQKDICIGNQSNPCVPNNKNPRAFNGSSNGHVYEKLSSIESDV
T1 sequence (Q12809 whole entry): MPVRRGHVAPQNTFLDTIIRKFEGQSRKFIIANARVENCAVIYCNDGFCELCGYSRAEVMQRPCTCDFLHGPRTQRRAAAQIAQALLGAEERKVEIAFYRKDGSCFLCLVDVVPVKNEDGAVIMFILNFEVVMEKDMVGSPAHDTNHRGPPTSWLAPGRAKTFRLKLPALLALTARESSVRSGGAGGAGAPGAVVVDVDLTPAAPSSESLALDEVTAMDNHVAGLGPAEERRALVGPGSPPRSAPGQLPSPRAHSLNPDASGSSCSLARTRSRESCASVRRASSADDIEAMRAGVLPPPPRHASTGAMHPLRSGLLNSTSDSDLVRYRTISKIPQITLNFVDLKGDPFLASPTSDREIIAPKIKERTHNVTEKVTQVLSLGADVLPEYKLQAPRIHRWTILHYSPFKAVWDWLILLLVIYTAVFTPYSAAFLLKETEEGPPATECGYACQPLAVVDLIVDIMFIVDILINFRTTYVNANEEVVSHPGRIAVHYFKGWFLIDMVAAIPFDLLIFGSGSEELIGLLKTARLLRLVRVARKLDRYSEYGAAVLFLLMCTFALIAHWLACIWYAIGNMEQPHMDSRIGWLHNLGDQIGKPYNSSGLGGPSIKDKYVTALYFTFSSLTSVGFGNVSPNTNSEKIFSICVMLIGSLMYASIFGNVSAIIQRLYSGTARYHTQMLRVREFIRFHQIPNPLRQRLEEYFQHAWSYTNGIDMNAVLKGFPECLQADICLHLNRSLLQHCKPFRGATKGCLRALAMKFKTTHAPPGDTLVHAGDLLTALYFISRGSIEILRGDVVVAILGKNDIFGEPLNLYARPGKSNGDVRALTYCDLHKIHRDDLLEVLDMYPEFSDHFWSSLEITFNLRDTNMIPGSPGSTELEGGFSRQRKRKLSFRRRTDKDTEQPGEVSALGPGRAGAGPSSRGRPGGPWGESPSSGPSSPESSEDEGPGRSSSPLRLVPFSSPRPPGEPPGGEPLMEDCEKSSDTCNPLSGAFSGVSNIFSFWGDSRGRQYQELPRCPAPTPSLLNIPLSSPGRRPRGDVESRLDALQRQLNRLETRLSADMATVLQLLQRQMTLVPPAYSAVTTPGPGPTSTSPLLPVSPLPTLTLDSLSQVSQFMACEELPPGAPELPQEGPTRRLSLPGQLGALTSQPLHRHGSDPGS

In the case of `Cc1ccc(CN2CC[C@@H](N3CC[C@@H](c4ccc(O)cc4)[C@H](F)C3)C2=O)cc1` [example 1, (R)-3-((3S,4S)-3-fluoro-4-(4-hydroxyphenyl)piperidin-1-yl)-1-(4-methylbenzyl)pyrrolidin-2-one], the IC50 at hERG channels turned out to be 28 µM. Further, in the series on mice, the immobility time entry is on record as “statistically significant decrease in immobility time”. The receptor occupancy at 3 mg/kg at NR2B-subtype receptors turned out to be 95%. In addition, at NR2B-subtype receptors, the receptor occupancy at 1 mg/kg was determined as 73%. For the same compound, the concentration at 21 min in series [1] (brain, read-out: Drug levels in the brain) was 749 nM; in series [1] (setting [4]) it was 268 nM. In addition, the concentration at 15 min was determined as 1980 nM in series [2] (setting [5]) and 1110 nM in series [2] (setting [6]).
`O=C1[C@H](N2CC[C@@H](c3ccc(O)cc3)[C@H](F)C2)CCN1Cc1ccc(C(F)F)cc1` (single isomer, unassigned) [example 6] gave an IC50 against hERG channels of 13.5 µM. For the same compound, in the series with mice, the immobility time result is on record as “statistically significant decrease in immobility time”. The same compound returned a receptor occupancy at 3 mg/kg at NR2B-subtype receptors of 97%. Also, the receptor occupancy at 1 mg/kg at NR2B-subtype receptors turned out to be 79%. Further, the concentration at 21 min in series [1] (setting [4]) turned out to be 360 nM. This compound showed an inhibitory constant (Ki) in series [3] of 0.004 µM. The concentration at 15 min in series [2] (setting [5]) worked out at 2200 nM; in series [2] (setting [6]) it was 1800 nM.
`O=C1[C@H](N2CCC(c3ccc(O)cc3)CC2)CCN1Cc1ccc(F)cc1` (single isomer, unassigned) [example 8] had a receptor occupancy at 3 mg/kg on NR2B-subtype receptors of 96%. This compound displayed a Ki in series [3] of 0.0014 µM. Further, the concentration at 15 min was found to be 900 nM in series [2] (setting [5]) and 570 nM in series [2] (setting [6]).
